# Values quoted from earlier work, collected in PMC2409929 (British Journal of Cancer, 2004).
# Marks after values point to notes of the source that are not given here.
# Columns and labels:
# [1] = N=6, mean±s.d., ref 16 (Herben et al, 1999), cited from earlier work
# [2] = system: topo-isomerase I; parameters: method as in Slatter et al, 1997; conditions: in vitro models; ref Slatter et al, 1997; cited from earlier work
# [3] = after irinotecan 140 mg m^−2: 10 mg m^−2 as 14-day prolonged infusions
smiles,measurement,setting,value
"CCc1c2c(nc3ccc(O)cc13)-c1cc3c(c(=O)n1C2)COC(=O)[C@]3(O)CC [SN-38, 7-ethyl-10-hydroxycamptothecin]",Metabolic ratio (SN-38 AUC over irinotecan AUC),[1]; 140 mg m^−2: 10 mg m^−2 irinotecan as 14-day prolonged infusions,0.12±0.02 ^b
same,SN-38 AUC,[1]; [3],1.4 ± 0.3 µM·h
same,SN-38 AUCc (AUC per cycle),[1]; [3],4.2 ± 0.9 µM·h
same,Potency as topo-isomerase I inhibitor relative to parent compound (irinotecan),[2],100–1000 times
